Consider twelve molecules from PMC11346426, “1-Deoxy-D-xylulose 5-phosphate reductoisomerase as target for anti Toxoplasma gondii agents: crystal structure, biochemical characterization and biological evaluation of inhibitors” (Biochemical Journal, 2024).

A short description of data set [1]: MTT cytotoxicity assay on host cells. Format: cell-based. Conditions: human, Hs27 fibroblasts, 24 h incubation. On the procedure:
The method based on the reduction of the tetrazolium dye MTT [3-(4,5-dimethylthiazole-2-yl)-2,5-diphenyltetrazolium bromide] to its purple insoluble formazan by mitochondrial NAD(P)H-dependent cellular oxidoreductase enzymes in living cells, previously described by Mosmann was employed to assess the cytotoxic effects of the examined DXR inhibitors on the host cells, as previously described [[78–80]]. Briefly, Hs27 cells were cultured in 96-well plates at a concentration of 5 × 10^4/well in (IMDM, Gibco–Thermo Fisher Scientific, Waltham, MA, U.S.A., #12440053) with a volume of 100 µl per well and incubated at 37°C overnight. Then, eleven two-fold serially diluted concentrations of the investigated compounds ranging from […] were prepared and added to each well. Hs27 cells were then incubated for 24 h in humidified atmosphere of 5% CO2 in air. Controls included wells containing medium alone without cells (blank), untreated Hs27 cells, DMSO (negative control) and staurosporine (0.031, 0.062, 0.125, 0.25, 0.5, 1 µM) (Merck, Darmstadt, Germany, #S4400) as apoptosis inducer. After incubation, the culture media was replaced with 100 µl of DMEM medium without phenol (Gibco-Thermo Fisher Scientific, Waltham, MA, U.S.A., #21041025) plus 10% heat-inactivated (FBS Standard, South America origin, FBS, 2 µm sterile filtered, PAN-Biotech, Aidenbach, Germany, #P30-3306), and […] 2-mercaptoethanol (Gibco-Thermo Fisher Scientific, Waltham, MA, U.S.A., #21985023). Thereafter, the MTT reagent was added to each well and analysis conducted following the manufacture instructions (CyQuant MTT Cell Viability Assay Kit, Thermo Fisher Scientific, Waltham, MA, U.S.A., #V-13154). The absorbance was measured at 570 nm on an ELISA microplate reer (TECAN Sunrise, Männedorf, Switzerland) and the percentage of viability was calculated when compared with the untreated control. The data set was subsequently adjusted by applying blank correction. Cell viability values expressed as percentage of the negative control value were calculated as follows: %Cellviability=meanabsorbanceoftreatedwells−blank/meanabsorbanceofnegativecontrol−blank×100. The cytotoxicity of each compound was expressed as half maximal cytotoxic concentration (CC50 values) against Hs27 cells. These values were calculated by a non-linear regression using GraphPad PRISM™ statistics software package (Version 9.5.1; San Diego, CA, U.S.A.) plotting the percentage viability against the log of compound concentrations.
(In general: Formazan colour is commonly taken as a measure of viable cells.)

Data set [2] addresses T1, TgDXR (Toxoplasma gondii, UniProt S8ESX0). The data set can be described thus: T. gondii DXR enzyme inhibition assay (NADPH oxidation, absorption at 340 nm). As to conditions: for IC50: 100 nM truncated His10-TgDXR, 100 µM NADPH, 4 mM MgCl2, 100 µM DXP, pH 7.5, 30°C, n = 6, read-out: IC50 ± S.D.; for Ki: Ki = IC50/(1 + [S]/Km), [S] = 100 µM DXP, Km = 30.58 µM. Format: biochemical. On the procedure:
The enzymatic assays were conducted at 30°C in 96 well plates using a total reaction volume of 150 µl containing 100 nM of purified TgDXR protein in dimeric state, 100 µM of NADPH and 4 mM of MgCl2 as cofactors, 100 µM of DXP as substrate in 50 mM HEPES buffer (pH 7.5) containing 50 µg/ml of BSA. For the screening, DXR inhibitors were tested for their inhibitory activity and their IC50 measurements at concentrations ranging from 100 µM to 3.05 nM, in dilution steps 1:2.
To optimize and to ensure the interaction of NADPH and its enzyme binding pocket, the assay solution was incubated for 10 min at 37°C. Then, the reaction was commenced with the addition of 100 µM of DXP to the complete assay mixture. The reaction was monitored by measuring the absorption at 340 nm every minute for 1 h using a microplate reader (Tecan® 200 Pro, Tecan Group, Männedorf, Switzerland). The initial velocity of the reactions were calculated, the values were then used in the software GraphPad PRISM™ (Version 9.5.1; San Diego, CA, U.S.A.) for determinations of the IC50 values.

Data set [3] relates to T. gondii ME49 tachyzoites. The data set can be described thus: T. gondii in vitro growth assay ([3H]-uracil incorporation). The data set is classed as cell-based, Toxoplasma gondii. Conditions: for IC50: Toxoplasma gondii, T. gondii type II ME49 strain in Hs27 host cells, n = 6; for activity against T. gondii growth (in words): T. gondii type II ME49 strain, [3H]-uracil incorporation. How it is done: With the aim to assess the inhibitory in vitro effect on parasite growth, T. gondii growth assays were performed as described previously [[78-80]]. Compounds, previously diluted in culture media in appropriate stock solutions, were added to confluent monolayers of Hs27 cells in 96-flat well plates at various concentrations. Then, freshly harvested tachyzoites were added to the cultures at a multiplicity of infection of 1:1 (parasite/host cell ratio). As controls, untreated and uninfected Hs27 cells, 24 h pre-stimulated and T. gondii infected cells with human interferon γ (IFN γ) (300 U/ml) (Merck, Darmstadt, Germany, #I17001) and T. gondii infected cells only were employed. After 48 h incubation, proliferating toxoplasmas were labelled with 0.3 μCi/well of tritiated uracil (^3H-U; 5 mCi, Hartmann Analytic, Braunschweig, Germany, #ART1782). After 28-30 h of incubation, plates were frozen at -20°C overnight. Cells were then thawed and harvested (Basic96 Harvester; Zinsser Analytic, Skatron Instruments, Northridge, CA, U.S.A.), purified with glass fibre filters (Printed Filtermat A 102 mm × 258 mm; PerkinElmer, Waltham, MA, U.S.A.) and dried at 130°C for 15-20 min. Dried filters were then wrapped into transparent plastic covers, dunked with 10 ml scintillation cocktail (Betaplate Scint; PerkinElmer, Waltham, MA, U.S.A., #1205-440), sealed and then loaded into metal cassettes and the incorporation of ^3H-uracil into the RNA of proliferating toxoplasmas was measured using a β-counter, a liquid scintillation counter that measure the […] (Betaplate Liquid Scintillation Counter 1205; LKB-[…], Melbourne, Australia). All data sets were normalized to 100% of the positive control. The dose-response curves of the compounds were fitted by means of the statistics software GraphPad PRISMTM (Version 9.5.1; San Diego, CA, U.S.A.). The minimal concentrations of compounds required for 50% inhibition of the parasite (IC50 values) were determined by non-linear regression analysis. Pyrimethamine was used as reference anti-toxoplasma compound.

For data set [4], the target named is T1, TgDXR. The data set can be described thus: TgDXR enzyme kinetic characterization (Michaelis-Menten). Conditions: 100 nM TgDXR, substrate or cofactor varied 7.8 to 500 µM; n = 8. The data set is classed as biochemical. How it is done: (§1) To biochemically characterize the catalytic ability of the truncated TgDXR for the conversion of DXP into MEP in the presence of the cofactors Mg^2+ and NADPH, and to determine the optimum conditions for maximum enzyme activity, the enzymatic assays were monitored at 340 nm (maximal absorbance of NADPH) in different conditions.
(§2) The enzymatic activity was evaluated in fixed conditions, using 50 mM HEPES buffer containing 50 µg/ml of bovine serum albumin (BSA) containing 100 nM of purified TgDXR protein in dimeric state. In each experimental evaluation, only one parameter was varied: either the substrate (DXP) concentration (ranging from 7.8 to 500 µM), or the cofactor NADPH (ranging from 7.8 to 500 µM), or Mg^2+ concentration (ranging from 1 to 6 mM) or the pH (ranging from 5.5 to 9) (Figure 3).
(§3) For the determination of the kinetic parameters, various concentration of the substrate DXP or NADPH were employed for the determination of the apparent Km (substrate concentration that yield a half-maximal velocity) and Vmax (maximum velocity) for the enzyme. These parameters were calculated by a non-linear regression with the software GraphPad PRISM™ (Version 9.5.1; San Diego, CA, U.S.A.) plotting the initial velocity of the reactions and using the Michaelis–Menten model (Figure 3).

Substrate in data set [5]: CC(=O)[C@@H](O)[C@H](O)COP(=O)(O)O
The description is as above. The data set is classed as biochemical, Toxoplasma gondii. Conditions: other: 100 nM TgDXR, substrate or cofactor varied 7.8 to 500 µM; n = 8. On the procedure:
as §1, §2, §3

As to `CN(O)C(=O)CSC(c1ccccc1)P(=O)(O)O` (stereo not shown) [Compound 2, (((2-(hydroxy(methyl)amino)-2-oxoethyl)thio)(phenyl)methyl)phosphonic acid], the CC50 at 24 h in data set [1] was > 200 µM. Moreover, the figures for the half-maximal inhibitory concentration (IC50) (on TgDXR [2]; in data set [3]) were 1.23 ± 0.12 µM and > 100 µM, respectively. For the same molecule, the Ki on TgDXR [2] turned out to be 0.37 µM.
For `CN(O)C(=O)CSC(c1ccc(F)c(F)c1)P(=O)(O)O` (stereo not shown) [Compound 3, ((3,4-difluorophenyl)((2-(hydroxy(methyl)amino)-2-oxoethyl)thio)methyl)phosphonic acid], in data set [1], the CC50 at 24 h was > 200 µM. For the same molecule, on TgDXR [2], the IC50 worked out at 0.64 ± 0.38 µM and the inhibition constant Ki turned out to be 0.19 µM. In addition, in data set [3], the “activity against T. gondii growth (in words)” value (from here on “activity”) is on record as “demonstrated activity” and half-maximal inhibition (IC50) required 14.4 ± 1.94 µM.
Take `CN(O)C(=O)CSC(c1ccc(Cl)c(Cl)c1)P(=O)(O)O` (stereo not shown) [Compound 4, ((3,4-dichlorophenyl)((2-(hydroxy(methyl)amino)-2-oxoethyl)thio)methyl)phosphonic acid]: the CC50 at 24 h in data set [1] was > 200 µM. On TgDXR [2], the half-inhibitory concentration (IC50) was found to be 0.62 ± 0.12 µM and the Ki was determined as 0.19 µM. Besides, in data set [3], the “activity” value is reported as “demonstrated activity” and the IC50 came out at 5.46 ± 1.22 µM.
Take `CN(O)C(=O)CSC(c1cc(F)cc(F)c1)P(=O)(O)O` (stereo not shown) [Compound 5, ((3,5-difluorophenyl)((2-(hydroxy(methyl)amino)-2-oxoethyl)thio)methyl)phosphonic acid]: the 50% cytotoxic concentration (CC50) at 24 h in data set [1] is > 200 µM. In addition, on TgDXR [2], the IC50 came to 2.45 ± 0.54 µM and the Ki turned out to be 0.74 µM. Moreover, in data set [3], the “activity” value is reported as “demonstrated activity” and the IC50 was found to be 56 ± 6.11 µM.
Take `COc1cc(OC)cc(C(SCC(=O)N(C)O)P(=O)(O)O)c1` (stereo not shown) [Compound 6, ((3,5-dimethoxyphenyl)((2-(hydroxy(methyl)amino)-2-oxoethyl)thio)methyl)phosphonic acid]: the half-maximal cytotoxic concentration (CC50) at 24 h in data set [1] is > 200 µM. In addition, at TgDXR [2], the concentration for half-maximal inhibition (IC50) is 3.9 ± 1.06 µM and the Ki was found to be 1.18 µM. Further, in data set [3], the “activity” value was “demonstrated activity” and half-maximal inhibition (IC50) was put at 12.5 ± 5.56 µM.
Regarding `CN(O)C(=O)COC(c1ccccc1)P(=O)(O)O` (stereo not shown) [Compound 7, ((2-(hydroxy(methyl)amino)-2-oxoethoxy)(phenyl)methyl)phosphonic acid], the 50% cytotoxic concentration (CC50) at 24 h in data set [1] was > 200 µM. For the same molecule, the IC50 on TgDXR [2] is 5.82 ± 1.52 µM. In data set [3], the “activity” value was “demonstrated activity” and the IC50 was 48.2 ± 8.56 µM.
As for `CN(O)C(=O)COC(c1ccc(F)c(F)c1)P(=O)(O)O` (stereo not shown) [Compound 8, ((3,4-difluorophenyl)(2-(hydroxy(methyl)amino)-2-oxoethoxy)methyl)phosphonic acid], the half-maximal cytotoxic concentration (CC50) at 24 h in data set [1] is > 200 µM. In addition, the IC50 on TgDXR [2] was 52.14 ± 0.34 µM; in data set [3] it was > 100 µM.
As for `CN(O)C(=O)COC(c1ccc(Cl)c(Cl)c1)P(=O)(O)O` (stereo not shown) [Compound 9, ((3,4-dichlorophenyl)(2-(hydroxy(methyl)amino)-2-oxoethoxy)methyl)phosphonic acid], the cytotoxic concentration (CC50) at 24 h in data set [1] is > 200 µM. Also, the concentration for half-maximal inhibition (IC50) on TgDXR [2] is 2.44 ± 0.43 µM; in data set [3] it was > 100 µM. In addition, the Ki at TgDXR [2] stood at 0.74 µM.
For `Cc1ccc(C(OCC(=O)N(C)O)P(=O)(O)O)cc1` (stereo not shown) [Compound 10, ((2-(hydroxy(methyl)amino)-2-oxoethoxy)(p-tolyl)methyl)phosphonic acid], in data set [1], the cytotoxic concentration (CC50) at 24 h was > 200 µM. At TgDXR [2], the IC50 came to 7.68 ± 0.87 µM and the Ki amounted to 2.51 µM. The 50% inhibitory concentration (IC50) in data set [3] was > 100 µM.
Regarding `CCc1nc(N)nc(N)c1-c1ccc(Cl)cc1` [Pyrimethamine, pyrimethamine, reference compound], the CC50 at 24 h in data set [1] is > 100 µM. In data set [3], this molecule had a half-maximal inhibitory concentration (IC50) of 0.22 ± 0.05 µM.
Regarding NADPH, the Km at TgDXR [4] is 51.3 ± 11.8 µM.

B1: TgDXR (Toxoplasma gondii ME49) (protein)
chain: PSTRVKRLVVLGSTGSIGKSTLEIAREFPDIFQIVGLAAGGSNLALLAEQVAAFRPQYVYLGDSSKVAELQERLNDHERSAAFPRPRLLLGDEGLAELACVPNYDILVSAIVGFKGVLPTLKALEAGKDVALANKEALVAAGPVFRCLLSTRGLLYGDQERQDRHERSHRSGDQEGDREEDTDGDRREECDKRRAKAGQKCGLLLPVDSEHSAIFQALQGVPASCYPPRKLLLTASGGPFRGRTRDELEQVTLESALKHPKWSMGAKITIDSATLMNKGLEVIEAHFAFGCPYSSIEVLVHPQAVIHSAVELRDGATLAQLGLPDMKLPIAYALTWPHRLAAPWSAGVDLTREGNLTFEKPDLNTFGCLGLAYEAGERGGVAPACLNAANEVAVERFRNKEIGFVDIEDTVRHVMALQERERDNFSDVSLQDVFDADHWARTAARAFKPRK
Turning to B1, the Km in data set [5] is 30.58 ± 6.33 µM.

As a reminder, the CC50 is the concentration that lowers cell viability or growth by half. By IC50 is commonly meant the concentration that inhibits the measured activity by half. The Ki is the dissociation constant of the complex between target and ligand, obtained from inhibition or displacement. In general, Km refers to the concentration of substrate that gives half-maximal velocity.
